The numbers were not newly measured in patent US20230381275A1, “MUSCULAR FUNCTION IMPROVING AGENT FOR SKELETAL MUSCLE OF WHICH FUNCTION IS DEGRADED DUE TO AGING” (OSAKA UNIVERSITY, priority 2020, published 2023), which cites them from elsewhere.

Test system in one data set: not given
As to conditions: relative to SVVYGLR (SEQ ID NO.: 1); earlier work of the inventors; cited from earlier work.
For SVVWGLR [SEQ ID No.: 3], the angiogenic effect result is on record as “maintained”. Regarding SVVYGLRG [SEQ ID NO.: 10], the angiogenic effect result was “maintained”. In the case of SVVYGL [SEQ ID NO.: 4], the angiogenic effect result is reported as “maintained”. VVYGLR [SEQ ID NO.: 5]: the angiogenic effect result is recorded as “maintained”.

SVVFGLR [SEQ ID No.: 2]: the angiogenic effect entry is “maintained”.

The next data set deals with fibroblasts. The settings on record: see Patent Document 1; cited from earlier work.
As for “fragment of osteopontin having SVVYGLR (SEQ ID No.: 1) at the C-terminus: thrombin-cleaved fragment of human osteopontin, or a portion thereof, having the sequence SVVYGLR at the C-terminus”, the “type III collagen production-promoting effect / type III collagen secretion” value is listed as “effect equivalent to type III collagen production-promoting effect of SVVYGLR”.
